Test results taken from US20170052170A1, “NOVEL CELL LINES AND METHODS” (priority 2009, published 2017).

Target: T1, sweet taste receptor (endogenously expressed T1R2/T1R3) (Homo sapiens, UniProt Q7RTX0+Q8TE23)
T1 construct: endogenous in cells; host or cells: HuTu (ATCC HTB-40), H716 (ATCC CCL-251), HEK 293T (ATCC CRL-11268); some with prior UV treatment
T1 sequence (Q8TE23 20-839): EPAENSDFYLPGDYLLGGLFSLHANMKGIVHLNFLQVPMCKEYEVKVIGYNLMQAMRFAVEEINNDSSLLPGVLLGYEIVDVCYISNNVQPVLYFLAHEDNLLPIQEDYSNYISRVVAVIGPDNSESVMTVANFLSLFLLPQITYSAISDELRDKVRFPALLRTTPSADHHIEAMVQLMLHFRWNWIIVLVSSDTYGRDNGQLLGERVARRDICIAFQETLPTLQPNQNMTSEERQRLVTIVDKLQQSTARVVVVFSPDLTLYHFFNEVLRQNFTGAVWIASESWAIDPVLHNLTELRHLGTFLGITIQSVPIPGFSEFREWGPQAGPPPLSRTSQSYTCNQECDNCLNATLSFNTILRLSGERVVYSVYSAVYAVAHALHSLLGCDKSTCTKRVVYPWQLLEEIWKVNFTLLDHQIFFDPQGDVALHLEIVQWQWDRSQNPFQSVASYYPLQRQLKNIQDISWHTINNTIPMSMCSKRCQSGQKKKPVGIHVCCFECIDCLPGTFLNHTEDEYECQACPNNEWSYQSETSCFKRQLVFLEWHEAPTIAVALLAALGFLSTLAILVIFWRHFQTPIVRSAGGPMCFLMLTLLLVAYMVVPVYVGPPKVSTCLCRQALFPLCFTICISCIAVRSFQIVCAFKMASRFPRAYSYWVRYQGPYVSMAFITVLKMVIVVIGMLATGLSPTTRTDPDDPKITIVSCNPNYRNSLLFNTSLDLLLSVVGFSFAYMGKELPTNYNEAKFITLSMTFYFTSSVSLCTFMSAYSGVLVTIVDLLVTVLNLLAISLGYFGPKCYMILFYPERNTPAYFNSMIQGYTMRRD
T1 sequence (Q7RTX0 21-852): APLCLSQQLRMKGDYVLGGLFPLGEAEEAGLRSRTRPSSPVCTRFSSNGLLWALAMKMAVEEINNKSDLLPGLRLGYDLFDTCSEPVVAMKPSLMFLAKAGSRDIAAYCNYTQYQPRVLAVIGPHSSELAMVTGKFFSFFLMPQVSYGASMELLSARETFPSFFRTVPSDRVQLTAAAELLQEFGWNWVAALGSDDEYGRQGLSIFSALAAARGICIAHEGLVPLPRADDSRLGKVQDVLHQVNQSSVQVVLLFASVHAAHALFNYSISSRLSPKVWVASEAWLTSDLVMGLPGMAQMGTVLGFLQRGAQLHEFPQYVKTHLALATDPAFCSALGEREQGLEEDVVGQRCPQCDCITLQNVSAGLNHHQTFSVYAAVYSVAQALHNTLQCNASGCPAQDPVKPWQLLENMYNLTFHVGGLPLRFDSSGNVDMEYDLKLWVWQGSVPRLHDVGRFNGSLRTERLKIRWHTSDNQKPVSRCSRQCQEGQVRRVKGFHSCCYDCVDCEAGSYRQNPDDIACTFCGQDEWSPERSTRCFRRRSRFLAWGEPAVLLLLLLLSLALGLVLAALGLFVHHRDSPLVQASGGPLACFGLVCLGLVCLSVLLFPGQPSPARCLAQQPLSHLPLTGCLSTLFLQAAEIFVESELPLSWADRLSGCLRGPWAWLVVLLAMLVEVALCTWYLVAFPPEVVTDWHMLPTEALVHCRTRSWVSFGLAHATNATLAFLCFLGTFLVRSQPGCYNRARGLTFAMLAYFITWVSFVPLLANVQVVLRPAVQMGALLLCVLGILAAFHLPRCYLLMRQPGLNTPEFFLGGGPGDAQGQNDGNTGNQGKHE
Test: calcium flux response to fructose of cells cultured from individual isolated HuTu, H716 and 293T cells
Type: cell-based
Conditions: fructose final concentration 15 mM, control response subtracted
Description: FIGS. 28 A-C depict representative traces of the functional cell-based response of cells of the invention to the addition of fructose (to a final concentration of 15 mM) compared to background. Cells cultured from individual isolated cells were tested (black traces) compared to control cells (gray traces). […] The cell-based assay was designed to report calcium flux using a fluorescent calcium signaling dye. Fluorescent assay response is plotted along the Y-axis and time is indicated along the X-axis. Arrows indicate the timepoint at which fructose was added. FIG. 28A depicts traces from cells cultured from an individual HuTu cell compared to control. FIG. 28B depicts traces from cells cultured from an individual H716 cell compared to control. FIG. 28C depicts traces from cells cultured from an individual 293T cell compared to control.
In a specific aspect, provided herein is a method for isolating a cell that endogenously expresses a sweet taste receptor T1R2 subunit and/or sweet taste receptor T1R3 subunit, wherein the method comprises the steps of: • a) providing a population of cells; • b) introducing into the cells a signaling probe or molecular beacon that detects expression of T1R2 and/or introducing into the cells a molecular beacon that detects expression of T1R3; and • c) isolating cells that express a sweet taste receptor T1R2 subunit and/or sweet taste receptor T1R3 subunit. […]

O=C(CO)[C@@H](O)[C@H](O)[C@H](O)CO [fructose]
functional cell-based (calcium flux) response compared to control cells: higher response
